This test concerns the target T1, G-actin (rabbit skeletal muscle) (Oryctolagus cuniculus, UniProt P68135).
T1 construct: gene ACTA1
Nature of the test: fluorescence of NPM reacted with free Cys374 after PtCl4^[…]- incubation; Scatchard approach, least-square fit. Format: binding.

For `[Cl][Pt-2]([Cl])([Cl])[Cl]` [PtCl4^2−], the dissociation constant (Kd) worked out at 100 nM.

These data come from paper PMC2364971, “A Spectroscopic Study on PtCl4^(2−) Binding to Rabbit Skeletal Muscle G-Actin” (Metal-Based Drugs, 1995).
